Source: paper PMC4738305, “Metabolism and Disposition of Aditoprim in Swine, Broilers, Carp and Rats” (Scientific Reports, 2016)
Like-named read-outs stand apart in the source and are kept apart here.

Key:
[1] = Metabolite profiling of ADP in excreta, plasma and bile (LC-v.ARC/MS-IT-TOF); assay type: in vivo, rats; conditions: for Average percentage of ADP and its metabolites in total dose: Rat, single oral 5 mg/kg b.w. ^3H-ADP; for percentage of the individual metabolite compared with the total concentration of ADP-related: within 6 h after dosing
Procedure: Animals (4 swine, 6 broilers, 6 carp, and 3 male and 3 female rats) were housed individually in clean, suspended wire-mesh metabolism cages, designed to separate the urine from the feces (carp were raised in individual aquaria). Each animal was weighed and assigned with a permanent identification number. A single dose of ^3 H-ADP (5 mg/kg b. w., 0.1 Ci/g) was administered via the oral gavage. Excreta were collected on ice at the pre-administration, in the period of 6, 12, and 24 h on day 1 d, and afterwards, intermittently in the period of 24 h up to 14 d. The piscine excreta were collected by changing and collecting raised water. The total volume or weight of each sample was measured and homogenized. The total radioactivity levels were determined through LSC for the recovery calculations. After the preparation, the samples were analyzed through LC/MS-IT-TOF with v. ARC radiometric detection (XenoBioticLaboratories, Inc.) for metabolite profiling. The pretreatment samples were used as controls to determine the background radioactivity or the endogenous nondrug-related ions observed within respective matrices or their extracts.
(§1) A total of 36 animals from each species (swine n = 24) were randomly assigned to six equal treatment groups and administered a single daily dose of ^3 H-ADP at 5 mg/kg b. w. (0.1 Ci/g) through oral gavage for 7 consecutive days. All the animals were housed on the basis of their group in the cages or aquaria throughout the whole study period. A group of animals was slaughtered through exsanguination under diethyl ether inhalation of anesthesia in the period of 6 h, 1, 3, 7, 14, and 21 d after the administration. The blood samples were immediately collected into the heparinized tubes and was centrifuged at 1920 × g at 4 °C for 10 min to obtain the plasma. The tissues from the heart, liver, spleen, lung, kidney, craw (broilers), stomach, intestine, fat, skin, muscle, thymus, pancreas, bile, bladder, hair (scale for carp), genital gland, adrenal glands, swim bladder (carp), brain, lymph, and bursa (broilers) were carefully excised and collected. The tissues were thoroughly rinsed with the deionized water to remove the residuary blood, blotted to dryness, and finally to perform the homogenization. In order to avoid cross-contamination the dissecting instruments were washed during the tissue procurements. The blank tissues were collected in order to provide control matrices. The total radioactivity levels in each sample were determined through LSC. The samples extracted from the plasma, bile, and tissues of the liver, kidney, muscle, and fat/skin were analyzed through LC/MS-IT-TOF and v. ARC radiometric detection for metabolite profiling. The blank samples were used as control to determine the background radioactivity or the endogenous nondrug-related ions observed within respective matrices or their extracts.
For metabolite profiling, the urine and feces samples from each animals were pooled proportionally to the excreted amount in each sampling period from 0 to 6 h, 6 h to 1 d, 1 to 3 d, 3 to 7 d, and 7 to 14 d post-dose, respectively. All samples were fully homogenized before the process. The pre-dose and blank samples served as the controls for determining the background radioactivity or the endogenous, nondrug-related ions observed within respective matrices or their extracts.
The urine samples (plasma, bile and raised water for carp) was subjected to solid-phase extraction with an Oasis MCX cartridge (3 mL, […]; Waters, Milford, MA, USA) for metabolite purification and enrichment. The pH value was adjusted to 2.8–3.2 by adding 1 M hydrochloric acid (HCl), and 2 mL of the sample was transferred into MCX cartridge, which was preconditioned with 3 mL of methanol and 3 mL of 0.1 mol/L HCl solution. The cartridge was washed with 3 mL of 0.1 mol/L HCl solution and was eluted with 5 mL of NH4OH/methanol (4:96, v:v). The effluent was concentrated to dryness under a stream of nitrogen at 40 °C. […]

[2] = Concentration and elimination of ADP and its metabolites in liver, kidney, muscle, fat/skin after oral ^3H-ADP for 7 d; assay type: in vivo, swine; conditions: for half-life: pig, po; for concentration at 0.25 d / concentration at 1 d / concentration at 3 d / concentration at 7 d / concentration at 14 d: swine, oral, 5 mg/kg b.w.
Procedure: as §1
The feces and tissues (2 g) were diluted with a mixture of methanol and chloroform (1:3, v:v; 2 mL/g homogenate). This procedure was carried out in a fume hood for the safety aspects. The pH value was adjusted to 9.0 with NH4OH. The mixture was vortexed and sonicated for 5 min and 10 min, respectively, and finally the samples were centrifuged at 7690 × g for 10 min. The supernatant was aspirated and then transferred into a new centrifuge tube. The obtained pellet was again subjected to the same process of vortex, ultrasonication, extraction, and centrifugation. The combined supernatant was concentrated under a stream of nitrogen in a water bath at 40 °C. The residue was reconstituted with 0.3 mL of methanol–water (1:9, v:v) before the injection into the LC-v. ARC/MS-IT-TOF system for analysis.
ADP and its metabolites in the prepared samples were determined with a v. ARC radiometric detector and a hybrid IT/TOF mass spectrometer connected to the HPLC system (Shimadzu Corp., Kyoto, Japan). The LC system was equipped with a solvent delivery pump (LC-20AD), an auto-sampler (SIL-20AC), a degasser (DGU-20 A 3), a photodiode array detector (SPD-M20A), a communication base module (CBM-20 A), and a column oven (CTO-20AC). The chromatographic separation was achieved by using an Agilent extend-C18 column (2.1 mm × 150 mm, 5 μm) with a gradient mobile phase of A (0.01% ammonia and 5 mM ammonium acetate in water) and B (methanol) at a flow rate of 0.2 mL/min. The column temperature was maintained at 35 °C. Various HPLC methods were performed because of the large number of different metabolites to be analyzed. For the porcine sample, method 1 started at 5% B and increased to 20% B over 35 min, then to 55% B by 60 min, followed by re-equilibration for another 10 min. For the remaining samples, method 2 started at 10% B and increased to 60% B over 30 min, subsequently was maintained at 60% B for an additional 10 min, and then changed to 90% B over 2 min and maintained for 2 min. Afterwards, a re-equilibration step (decreased to 10% B over 1 min and maintained at 10% B for additional 9 min) was followed. For each matrix, more than 98% of the radioactivity injected into the column was eluted during the running time of the gradient program. […]

[3] = swine kidney, after 5 mg/kg b. w. for 7 days, read-out: t1/2 of the individual compound (converted)
[4] = swine liver, after 5 mg/kg b. w. for 7 days, read-out: t1/2 of the individual compound (converted)
[5] = swine muscle, after 5 mg/kg b. w. for 7 days, read-out: t1/2 of the individual compound (converted)
[6] = tissues (liver, kidney, muscle, fat/skin), 5 mg/kg, swine tissues, read-out: t1/2 of the individual compound, range over tissues

Row | Average percentage of ADP and its metabolites in total dose ([1]; Feces) | Average percentage of ADP and its metabolites in total dose ([1]; Urine) | percentage of the individual metabolite compared with the total concentration of ADP-related ([1]; Rats Feces) | percentage of the individual metabolite compared with the total concentration of ADP-related ([1]; Rats Plasma) | percentage of the individual metabolite compared with the total concentration of ADP-related ([1]; Rats Urine) | half-life [2, 3] | half-life [2, 4] | half-life [2, 5] | half-life [2, 6] | concentration at 0.25 d ([2]; fat) | concentration at 1 d ([2]; fat) | concentration at 0.25 d ([2]; kidney) | concentration at 1 d ([2]; kidney) | concentration at 3 d ([2]; kidney) | concentration at 7 d ([2]; kidney) | concentration at 0.25 d ([2]; liver) | concentration at 1 d ([2]; liver) | concentration at 3 d ([2]; liver) | concentration at 0.25 d ([2]; muscle) | concentration at 1 d ([2]; muscle) | Structure (SMILES) | also measured
1 | 14.0% | 61.3% | 79.4% | 75.0% | 71.2% | 80.9 h | 105 h | 38.9 h | 38.9 to 105 h | 1270 ± 430 ng/g | 510 ± 120 ng/g | 19000 ± 8810 ng/g | 4160 ± 2000 ng/g | 1080 ± 220 ng/g | 360 ± 90 ng/g | 7600 ± 1040 ng/g | 3010 ± 900 ng/g | 1320 ± 270 ng/g | 1490 ± 390 ng/g | 890 ± 220 ng/g | COc1cc(Cc2cnc(N)nc2N)cc(OC)c1N(C)C [A0, 2,4-Diamino-5-[4-(dimethylamino)-3,5-dimethoxybenzyl] pyrimidine] | half-life ([2]; swine fat, after 5 mg/kg b. w. for 7 days, read-out: t1/2 of the individual compound (converted)): 80.9 h; share of the sample radioactivity in the detected tissues ([2]; swine liver, kidney, muscle, fat, over the sampling times): more than 42%; concentration at 3 d ([2]; fat): 330 ± 70 ng/g; concentration at 7 d ([2]; fat): 150 ± 30 ng/g; concentration at 14 d ([2]; kidney): 110 ± 20 ng/g; concentration at 7 d ([2]; liver): 820 ± 140 ng/g; concentration at 14 d ([2]; liver): 240 ± 50 ng/g; concentration at 3 d ([2]; muscle): 380 ± 90 ng/g; concentration at 7 d ([2]; muscle): 70 ± 10 ng/g
2 | 0.7% | 1.1% | 0.3% | 6.0% | 2.6% | 10.1 h | 23.8 h | – | – | 70 ± 10 ng/g | – | 6360 ± 1040 ng/g | 1300 ± 400 ng/g | 20 ± 10 ng/g | – | 2440 ± 480 ng/g | 840 ± 110 ng/g | 310 ± 80 ng/g | 160 ± 40 ng/g | 50 ± 10 ng/g | COc1cc(Cc2cnc(N)nc2N)cc(OC)c1N [A2, N-didesmethyl-ADP] | half-life ([2]; 5 mg/kg, kidney and liver of swine and rat, read-out: t1/2 of the individual compound, range over tissues): 10.1 to 38.6 h
3 | 2.7% | 13.8% | 20.4% | 19.0% | 14.7% | 21.8 h | 25 h | 17.5 h | 17.5 to 25 h | 300 ± 70 ng/g | 60 ± 10 ng/g | 15400 ± 5300 ng/g | 3430 ± 1250 ng/g | 160 ± 40 ng/g | 20 ng/g | 4620 ± 850 ng/g | 1650 ± 330 ng/g | 640 ± 110 ng/g | 850 ± 250 ng/g | 150 ± 40 ng/g | CNc1c(OC)cc(Cc2cnc(N)nc2N)cc1OC [A1, N-monodesmethyl-ADP] | concentration at 3 d ([2]; muscle): 50 ± 10 ng/g
